According to US11136297B2, “Compositions and methods for treating cancer” (THE REGENTS OF THE UNIVERSITY OF CALIFORNIA, priority 2016, dated 2021):

Columns and labels:
K-Ras(M72C) GDP = target: T1, K-Ras(M72C) GDP (Homo sapiens, UniProt P01116, M72C); assay: βME50 determination of tethering fragments; type: binding; conditions: relative to 2C07
T1 construct: Untagged recombinant 1-169 K-Ras(M72C) GDP; His6 (cleaved yes); made in house; host or cells: Escherichia coli BL21(DE3)
Procedure: (§1) A tethering library of 960 disulfides were screened against 1-169 K-Ras(M72C) GDP using intact protein mass spectrometry to monitor percent modification (See Methods, and FIG. 37). […] To better prioritize tethering fragments, a βME50 value (the concentration of βME needed to reduce disulfide fragment modification to 50%) was determined for each compound. A higher βME50 value corresponds to a better fragment as it can bind with increasing concentrations of competitive thiol (Erlanson et al., 2004; Yang et al., 2009).
We next explored small chemical modifications to 2C07.

[1] = target: T2, H-Ras(M72C) GppNHp binding to Raf-1-RBD (Homo sapiens, UniProt P01112, M72C); assay: Raf-1-RBD pull-down of labeled H-Ras(M72C) GppNHp; conditions: H-Ras(M72C) GppNHp pre-labeled with compound; various concentrations of H-Ras
T2 construct: and H-Ras (residues 1-166) were transformed into Escherichia coli; His6; made in house; host or cells: Escherichia coli BL21(DE3)
Procedure: FIGS. 29A-29D. […] FIG. 29D: Reconstruction of Ras cycle is achieved by inducing nucleotide exchange of 100 nM Ras by various concentrations of SOS^cat for either 1 or 2 hours and subsequent pull-down by Raf-1-RBD.
FIGS. 33A-33D. […] In FIG. 33B) through FIG. 33D), normalized pull-down signals are shown below the blot. S. E. M for each signal, number of replicates, and […] for each comparative Standard T-Test are summarized herein (see Tables 33B, 33C, and 33D). […] Comparative statistics were done for normalized pull-down signals between protein constructs of the same condition (i.e. in FIG. 33B) and FIG. 33C), column 1 for unlabeled and 1 for labeled protein, 2 for unlabeled and 2 for labeled, and so on were statistically compared, and in FIG. 33D) only the +SOS^cat and +GppNHp lanes were compared across protein constructs). FIG. 33A) Cartoon representation of pull down protocol. […] Reported values are quantified pull-down signals normalized to input. FIG. 33B) Cartoon representation of pull down protocol. […] FIG. 33C) Cartoon representation of pull down protocol. […] FIG. 33D) Cartoon representation of pull down protocol. Ras activation is achieved by catalyzing nucleotide exchange by SOS^cat and indirectly reading out activated Ras by subsequent pull down by Raf-1-RBD.

[2] = target: T2, H-Ras(M72C) GppNHp binding to Raf-1-RBD; assay: Ras GppNHp in vitro pull down by His6-MBP-Raf-1-RBD; conditions: H-Ras(M72C) pre-labeled with compound
Procedure: Ras GppNHp In Vitro Pull Down Assay by His6-MBP-Raf-1-RBD. For each His6-MBP-Raf-1-RBD in vitro pull down the total volume was 500 μL. Each reaction had the following final composition: Either 20, 80, 200, 400, or 800 nM Ras GppNHp (from 0.2 mg/mL Ras stock), 75 nM BSA (2.5 μg, 5 μL of 0.5 mg/mL BSA stock), 200 nM of His6-MBP-Raf-1-RBD (5.3 μg, 1.2 μL of 4.38 mg/mL stock of His6-MBP-Raf-1-RBDwitt), and Raf Pull Down Buffer to volume (25 mM Tris (pH 7.2), 150 mM NaCl, 5 mM MgCl2, 1% NP-40, 5% glycerol, 20 mM imidazole). Samples were then mixed by gentle rotation at 4° C. for 30 min. While equilibrating, add 50 μL Ni-NTA slurry (Qiagen) to a cellulose acetate spin cup and spin at 5,000 rpm on a tabletop centrifuge for 30 seconds. Wash the beads with 400 μL of Raf Pull Down Buffer to wash away bead storage buffer. Before adding each pull down solution, take 10 μL and save as a loading control sample. To each spin cup filled with washed Ni-NTA beads, add the remaining equilibrated pull down solution, seal the spin cup with parafilm and let rotate at 4° C. for 30 more minutes. After mixing, centrifuge the sample for 30 seconds at 5,000 rpm. Toss flow through. Wash the beads X 5 with 400 μL of Raf Pull Down Buffer. After last wash, centrifuge one last time to remove any excess buffer stuck to the beads. […] Blots were read out using LICOR compatible secondary antibodies. […]

[3] = target: T3, H-Ras(M72C) bound to either GDP or GppNHp (Homo sapiens, UniProt P01112, M72C); assay: Electrophile labeling experiments (percent modification by whole protein LC/MS); type: binding; conditions: 4 μM H-Ras(M72C) GDP or GppNHp, 100 μM electrophile, 24 hours
T3 construct: Labeling studies were conducted using the 1-166 H-Ras(M72C) construct containing all endogenous cysteines; His6; made in house; host or cells: Escherichia coli BL21(DE3)
Procedure: Electrophile Labeling Experiments.
Each reaction was analyzed in a 96 well plate format for analysis by LC/MS. Total reaction volumes were 25 μL for single time point labeling experiments and 200 uL for full 24-hour time courses. 25 μL reactions were made in the wells of a V-bottom 96 well plate and 200 uL reactions were made in 1.25 mL eppendorf tubes. All labeling reactions were conducted in Gel Filtration Buffer (20 mM HEPES (pH 7.5), 150 mM NaCl) with no added reductant at room temperature. […] Electrophile stocks were made in DMSO at 10 mM, aliquoted, and frozen. Labeling reactions were started by the addition of the desired volume of 10 mM electrophile stock and mixed thoroughly by pipette. General screening of new electrophiles was done at 100 μM electrophile in triplicate and sampled as a single time point after 24 hours of incubation. For Compound 3, labeling time courses were conducted at 20 μM compound with sampling done every 2 hours for the first 10 hours of incubation and continued after overnight incubation until the protein was fully modified. Reactions were allowed to sit at room temperature in the dark (either covered in aluminum foil or in a bench drawer) until the desired time point was reached. For 24-hour single point labeling experiments, the reaction was directly sampled from the 96 well plate and analyzed by LC/MS. For experiments with multiple time points, 22.5 μL aliquots of the 200 μL master reaction were sampled and quenched by the addition of 2.5 μL of 2% formic acid (also made in Gel Filtration Buffer). This 25 μL quenched sample was then analyzed by LC/MS and the remaining master reaction was allowed to continue reacting after gentle mixing by pipette. The percent modification was analyzed by electrospray mass spectrometry using a Waters Acquity UPLC/ESI-TQD with a 2.1×50 mm Acquity UPLC BEH300 C4 column.

WT H-Ras = target: T4, WT H-Ras (Homo sapiens, UniProt P01112); assay: BioLayer interferometry (BLI) reversible binding
T4 construct: made in house; host or cells: Escherichia coli BL21(DE3)

H-Ras(M72C) GDP = H-Ras(M72C) GDP (Homo sapiens, UniProt P01112, M72C); assay: Competition labeling experiments (Compound 3 vs Compound 4); type: binding; set-up: Labeling studies were conducted using the 1-166 H-Ras(M72C) construct containing all endogenous cysteines; His6; made in house; host or cells: Escherichia coli BL21(DE3); conditions: 20 μM Compound 3, varying Compound 4 (0-180), 4 μM H-Ras(M72C) GDP
Procedure: Competition Labeling Experiments.
[…] were made in Gel Filtration buffer (20 mM HEPES (pH 7.5), 150 mM NaCl) with no added reductant at room temperature. The final concentrations of each reagent were as follows: […], 1 mM MgCl2, […], X mM Compound 4, and a total DMSO concentration of 4% by volume. Compound 4 was varied from OX (0 mM), 1× (20 mM), 3× (60 mM), and 9× (180 mM) respectively. Adding the desired volume of Gel Filtration Buffer, MgCl2, DMSO, and 10 mM compound stocks of Compounds 3 and 4 was done first and mixed thoroughly before protein was added. Reactions were started by the addition and gentle mixing by pipette of concentrated Ras stocks diluted into the master reaction down to […]. Each reaction was set in triplicate and allowed to react at room temperature in the dark (either covered in aluminum foil or in a bench drawer) until the desired time point was reached. At each time point, […] aliquots of each 200 mL master reaction was sampled and quenched by the addition of […] of 2% formic acid (also made in Gel Filtration Buffer). This 25 mL quenched sample was then analyzed by LC/MS and the remaining master reaction was allowed to continue reacting after gentle mixing by pipette. The percent modification was analyzed by electrospray mass spectrometry using a Waters Acquity UPLC/ESI-TQD with a 2.1×50 mm Acquity UPLC BEH300 C4 column.

1-169 K-Ras(M72C) GDP = target: T5, 1-169 K-Ras(M72C) GDP (Homo sapiens, UniProt P01116, M72C); assay: Disulfide tethering screen, percent modification by intact protein mass spectrometry; type: binding; conditions: screening βME 1 mM
T5 construct: Untagged recombinant 1-169 K-Ras(M72C) GDP; His6 (cleaved yes); made in house; host or cells: Escherichia coli BL21(DE3)
From the text: In some embodiments, a library of disulfide compounds may be screened against a cysteine-containing protein in the presence of a reducing agent such as β-mercaptoethanol (BME). Compounds with complementary binding contacts with a region of the protein near the cysteine may shift the disulfide exchange equilibrium away from BME modification of the cysteine thiol and enhance the ratio of the hit ligand bound to the cysteine. The resulting mass change of the protein can be readily detected by mass spectrometry, and the percentage of modified protein can be used as a measure of potency. Compounds which exchange with the cysteine without conferring affinity should exchange with reducing agent equally well and will not shift the equilibrium toward protein modification. The potency of various compounds at a given concentration of BME may be compared by calculating the dose-response 50 (DR50), which is the concentration of compound at which the protein becomes 50% modified.
A tethering library of 960 disulfides were screened against 1-169 K-Ras(M72C) GDP using intact protein mass spectrometry to monitor percent modification (See Methods, and FIG. 37). […] To better prioritize tethering fragments, a βME50 value (the concentration of βME needed to reduce disulfide fragment modification to 50%) was determined for each compound. […]

[4] = target: T6, full-length wild-type K-Ras (Homo sapiens, UniProt P01116); assay: Disulfide fragment labeling of full-length wild-type K-Ras (Cys 72 selectivity); type: binding; conditions: wild-type K-Ras contains 4 native cysteine residues
T6 construct: His6; made in house; host or cells: Escherichia coli BL21(DE3)

H-Ras(M72C) GppNHp = H-Ras(M72C) GppNHp (Homo sapiens, UniProt P01112, M72C); assay: βME50 and percent labeling of tethering fragments, GppNHp state; type: binding; set-up: Labeling studies were conducted using the 1-166 H-Ras(M72C) construct containing all endogenous cysteines; His6; made in house; host or cells: Escherichia coli BL21(DE3); conditions: disulfide tethering at Cys 72
Procedure: FIG. 32. […] Percent labeling against H-Ras(M72C) GDP and GppNHp at the screening βME concentration (1 mM) are graphed.
as §1

Compound: COc1ccc(-n2cc(C(=O)NCCCSSCCN(C)C)cn2)cc1 [Compound 2C07c, N-(3-((2-(dimethylamino)ethyl)disulfanyl)propyl)-1-(4-methoxyphenyl)-1H-pyrazole-4-carboxamide]
- change in βME50 (K-Ras(M72C) GDP): drastic decrease

Compound: C=CC(=O)Nc1cccc(NC(=O)c2cnn(-c3ccc(OC)cc3)c2C(F)(F)F)c1 [Compound 2, N-(3-acrylamidophenyl)-1-(4-methoxyphenyl)-5-(trifluoromethyl)-1H-pyrazole-4-carboxamide]
- Raf-1-RBD binding [1]: do not inhibit Raf RBD binding
- Raf-1-RBD binding (pull down), labeled vs unlabeled H-Ras(M72C) [2]: did not inhibit Raf-1-RBD binding
- Percent modification (labeling of Cys 72) [3]: significant increase

Compound: C=CC(=O)Nc1ccc(NC(=O)c2cnn(-c3ccc(OC)cc3)c2C(F)(F)F)cc1 [Compound 1, N-(4-acrylamidophenyl)-1-(4-methoxyphenyl)-5-(trifluoromethyl)-1H-pyrazole-4-carboxamide]
- Percent modification (labeling of Cys 72) [3]: no detectable labeling

Compound: CCC(=O)Nc1cc(Cl)cc(NC(=O)c2cnn(-c3ccc(OC)cc3)c2C(F)(F)F)c1 [Compound 4, N-(3-chloro-5-propionamidophenyl)-1-(4-methoxyphenyl)-5-(trifluoromethyl)-1H-pyrazole-4-carboxamide]
- reversible binding by BLI (WT H-Ras): unable to detect measurable binding
- rate of Compound 3 labeling (% labeled per hour) in presence of Compound 4 (H-Ras(M72C) GDP): dose dependent decrease
- rate of Compound 3 labeling (% labeled per hour) in presence of Compound 4 (H-Ras(M72C) GDP; listed as compound 4): dose-dependent decrease

Compound: COc1ccc(-n2ncc(C(=O)NCCCCSSCCN(C)C)c2C(F)(F)F)cc1 [Compound 2C07b, N-(4-((2-(dimethylamino)ethyl)disulfanyl)butyl)-1-(4-methoxyphenyl)-5-(trifluoromethyl)-1H-pyrazole-4-carboxamide]
- change in βME50 (K-Ras(M72C) GDP): small decrease

Compound: CN(C)CCSSCCCNC(=O)C(=O)c1c[nH]c2ccccc12 [Compound 2B02, N-(3-((2-(dimethylamino)ethyl)disulfanyl)propyl)-2-(1H-indol-3-yl)-2-oxoacetamide]
- percent modification (1-169 K-Ras(M72C) GDP): 52.8%
- modification of full-length wild-type K-Ras [4]: did not modify
- labeling of H-Ras(M72C) GppNHp (H-Ras(M72C) GppNHp): labeled
